From patent US20110218103A1, “Fluoroalkyl-substituted 2-amidobenzimidazoles” (BAYER CROPSCIENCE AG, priority 2010, published 2011)

Legend:
Zea mays (ZEAMX) = test: Cold stress test on crop plants, spray application in greenhouse, visual damage rating; format: in vivo; conditions: mean of three results
Procedure: Seeds of monocotyledonous and dicotyledonous crop plants were placed in sandy loam in wood-fiber pots, covered with soil and cultivated in a greenhouse under good growth conditions. The test plants were treated at the early leaf stage (BBCH10-BBCH13). To ensure uniform water supply before commencement of stress, the potted plants were supplied with the maximum amount of water immediately beforehand by dam irrigation and, after application, transferred in plastic inserts in order to prevent subsequent, excessively rapid drying. The inventive compounds, formulated in the form of wettable powders (WP), wettable granules (WG), suspension concentrates (SC) or emulsion concentrates (EC), were sprayed onto the green parts of the plants as an aqueous suspension at an equivalent water application rate of 600 l/ha with addition of 0.2% wetting agent (agrotin). Substance application was followed immediately by stress treatment of the plants (cold or drought stress). For cold stress treatment, the plants were kept under the following controlled conditions: “day”: 12 hours with illumination at 8° C. “night”: 12 hours without illumination at 1° C. The duration of the respective stress phases was guided mainly by the state of the untreated, stressed control plants and thus varies from crop to crop. It was ended (by re-irrigating or transfer to a greenhouse with good growth conditions) as soon as irreversible damage is observed on the untreated, stressed control plants. In the case of dicotyledonous crops, for example oilseed rape and soya, the duration of the drought stress phase was between 3 and 5 days, in the case of monocotyledonous crops, for example wheat, barley or corn, between 6 and 10 days. The duration of the cold stress phase varied between 12 and 14 days. The end of the stress phase was followed by an approx. 5-7-day recovery phase, during which the plants were once again kept under good growth conditions in a greenhouse. […] The intensity of damage was first assessed as a percentage (100%=plants have died, 0%=like control plants). […]

Brassica napus (BRSNS) = test: Drought stress test on crop plants, spray application in greenhouse, visual damage rating; format: in vivo; conditions: mean of three results
Procedure: Seeds of monocotyledonous and dicotyledonous crop plants were placed in sandy loam in wood-fiber pots, covered with soil and cultivated in a greenhouse under good growth conditions. The test plants were treated at the early leaf stage (BBCH10-BBCH13). To ensure uniform water supply before commencement of stress, the potted plants were supplied with the maximum amount of water immediately beforehand by dam irrigation and, after application, transferred in plastic inserts in order to prevent subsequent, excessively rapid drying. The inventive compounds, formulated in the form of wettable powders (WP), wettable granules (WG), suspension concentrates (SC) or emulsion concentrates (EC), were sprayed onto the green parts of the plants as an aqueous suspension at an equivalent water application rate of 600 l/ha with addition of 0.2% wetting agent (agrotin). Substance application was followed immediately by stress treatment of the plants (cold or drought stress). For cold stress treatment, the plants were kept under the following controlled conditions: Drought stress was induced by gradual drying out under the following conditions: “day”: 14 hours with illumination at 26° C. “night”: 10 hours without illumination at 18° C. The duration of the respective stress phases was guided mainly by the state of the untreated, stressed control plants and thus varies from crop to crop. It was ended (by re-irrigating or transfer to a greenhouse with good growth conditions) as soon as irreversible damage is observed on the untreated, stressed control plants. In the case of dicotyledonous crops, for example oilseed rape and soya, the duration of the drought stress phase was between 3 and 5 days, in the case of monocotyledonous crops, for example wheat, barley or corn, between 6 and 10 days. The duration of the cold stress phase varied between 12 and 14 days. The end of the stress phase was followed by an approx. 5-7-day recovery phase, during which the plants were once again kept under good growth conditions in a greenhouse. In order to rule out any influence of the effects observed by any fungicidal action of the test compounds, it was additionally ensured that the tests proceed without fungal infection and without infection pressure. After the recovery phase had ended, the intensities of damage were rated visually compared to untreated, unstressed controls of the same age (in the case of drought stress) or the same growth stage (in the case of cold stress). The intensity of damage was first assessed as a percentage (100%=plants have died, 0%=like control plants). These values were then used to calculate the efficacy of the test compounds (=percentage reduction in the intensity of damage as a result of substance application) by the following formula: [formula] EF: efficacy (%) DVus: damage value of the untreated, stressed control DVts: damage value of the plants treated with test compound The tables below list mean values in each case from three results of the same test. Effects of selected compounds of the formula (I) under drought stress: BRSNS=Brassica napus

SMILES | EF (ZEAMX), efficacy = percentage reduction in the intensity of damage (Zea mays (ZEAMX); 25 g/ha) | EF (BRSNS), efficacy = percentage reduction in the intensity of damage (Brassica napus (BRSNS); 50 g/ha) | EF (ZEAMX), efficacy = percentage reduction in the intensity of damage (Zea mays (ZEAMX); 5 g/ha) | EF (BRSNS), efficacy = percentage reduction in the intensity of damage (Brassica napus (BRSNS); 25 g/ha)
NC(=O)c1cccc2[nH]c(C(F)(F)C(F)(F)C(F)(F)F)nc12 [1-17] | >5% | >5% | – | –
NC(=O)c1cccc2[nH]c(C(F)(F)C(F)(F)F)nc12 [1-2, 2-(pentafluoroethyl)-1H-benzimidazole-4-carboxamide] | – | – | >5% | >5%
